{
  "source": "patent US4746509A",
  "about": "“Transdermal medicament” (Rhone-Poulenc Sante, priority 1983, dated 1988)",
  "test": "Solubility in water",
  "format": "physicochemical",
  "note": "Structures can show the parent of a compound that is named as a salt.",
  "data": [
    {"smiles": "CCCC(=O)Nc1ccc(OCC(O)CNC(C)C)c(C(C)=O)c1", "note": "(stereo not shown) [acebutolol hydrochloride]", "values": [
      {"measurement": "solubility in water", "result": "soluble in water"}
    ]}
  ]
}
